Results reported in patent US11793824B2, “Administration of nicotinamide mononucleotide in the treatment of disease” (Washington University, priority 2013, dated 2023).

What was measured:
Assay type in all cases: in vivo, mouse
[1] = Fundus biomicroscopy of aged mice; settings: 18 months of age
Protocol: (§1) A 12 month-long NMN administration study using wild-type mice under a regular chow-fed condition was conducted. NMN was administered through drinking water, and two doses of NMN, 100 and 300 mg/kg body weight/day, were tested. […] To assess beneficial and possible adverse effects of NMN, a variety of physiological parameters were periodically monitored, including body weight, body temperature, food and water intake, fed and fasted blood glucose levels, fed and fasted plasma lipid panels, and glucose and insulin tolerance, in NMN-administered and control mice. Blood chemistry, blood cell counts, urine strip test, and other physiological tests including physical activity test were also checked.
(§2) In the long-term NMN administration study (See Methods; Administration of NMN through Drinking Water and Determination of NMN Stability and Toxicity), retinal function was evaluated by fundus biomicroscopy and electroretinography (ERG). FIG. 11 illustrates fundus biomicroscopy images from control and NMN-administered mice. For each group, five mice were examined, and two representative images are shown.

[2] = Age-associated body weight increase, 12 month-long NMN administration; settings: 12 months
Protocol: as §1
In these experiments, NMN was administered to mice at a dosage rate of 100 mg/kg per day or 300 mg/kg per day. […] The results were analyzed with two-way RANOVA and one-way RANOVA with the unweighted linear term. All values are presented as mean±SEM (n=15, 14, and 14 for control, 100, and 300 mg/kg NMN-administered groups).

[3] = Electroretinography (ERG) of aged mice
Protocol: as §1, §2
FIG. 12A-C illustrates electroretinograms from control and NMN-administered mice. Amplitudes of scotopic a and b (FIG. 12A, FIG. 12B) and photopic b (FIG. 12C) waves over each stimulus range are shown. […] The data were analyzed with the two-way repeated ANOVA. […]

[4] = Contextual and cued fear conditioning tests in HFD-fed mice
Protocol: Two groups of wild-type C57BL/6 mice at […] of age were fed a high fat diet (HFD) containing 42% of the total calories from fat (TD88137; Harlan Taklad). NMN at a dose of 300 mg/kg/day began to be administered through drinking water to one of the HFD-fed groups after 4 months of HFD feeding. The control group was fed a regular chow. After 8 months of HFD feeding with or without 4 months of NMN treatment, the contextual fear conditioning test, a sensitive test to examine the memory function that involves the hippocampus, was conducted for mice in these three groups.
FIG. 10 illustrates freezing responses of regular chow-fed control, HFD-fed, and HFD-fed, NMN-treated mice in contextual and cued fear conditioning tests on Day 1, Day 2 and Day3. NMN was administered at the dose of 300 mg/kg/day for 4 months. On Day 1 of the study, mice were given an auditory cue and then a mild electric foot shock, and a time of freezing was analyzed individually. On Day 2, the trained mice were placed into a training chamber with no tone cues, and their freezing responses were evaluated. […] The results were analyzed by one-way ANOVA with unweighted quadratic term. All values are presented as mean±SEM (n=17, 15, and 12 for regular chow-fed control, HFD-fed, and HFD-fed, NMN-treated mice, respectively). **P<0.01; *P<0.05.

**Q.** For `NC(=O)c1ccc[n+]([C@@H]2O[C@H](COP(=O)([O-])O)[C@@H](O)[C@H]2O)c1` [NMN, nicotinamide mononucleotide], which “mice with dramatic reductions in intraretinal whitish deposits” value ([1]; 100 mg/kg) is on record?
**A.** two

**Q.** And the “mice with dramatic reductions in intraretinal whitish deposits” value ([1]; 300 mg/kg)?
**A.** four

**Q.** What about the “average percent body weight gain suppression normalized to control mice” value ([2]; 100 mg/kg group) of the same compound?
**A.** 12%

**Q.** And the “average percent body weight reduction normalized to control mice” value ([2]; 100 mg/kg group)?
**A.** 4%

**Q.** And the “average percent body weight gain suppression normalized to control mice” value ([2]; 300 mg/kg group)?
**A.** 30%

**Q.** And the “average percent body weight reduction normalized to control mice” value ([2]; 300 mg/kg group)?
**A.** 9%

**Q.** What about the “scotopic a wave amplitudes” value ([3]; at 0 and 5 db (300 mg/kg), 5 db (100 mg/kg), aged mice) of the same compound?
**A.** significantly higher amplitudes

**Q.** What about the photopic b wave ([3]; entire range of stimulus, 100 and 300 mg/kg groups) of the same compound?
**A.** trend of improvement

**Q.** What about the “freezing responses, conditioning session and cued fear conditioning” value ([4]; Day 1 and Day 3, NMN 300 mg/kg/day for 4 months) of the same compound?
**A.** did not differ from those of control mice

**Q.** And the “freezing responses, contextual fear conditioning test” value ([4]; Day 2, NMN 300 mg/kg/day for 4 months)?
**A.** indistinguishable from those of regular chow-fed control mice
